Experimental data taken from US20230149324A1, “COMPOSITIONS COMPRISING THYMOL AND AMINO ACIDS FOR USE IN THE TREATMENT OF INFLAMMATORY OR FUNCTIONAL INTESTINAL DISORDERS” (VETAGRO INTERNATIONAL S.R.L., priority 2020, published 2023).

Experiments:
FAAH mRNA = assay: Gene expression of ECS enzyme FAAH in duodenal and ileal mucosa of weaned piglets fed thymol (real-time PCR); format: in vivo, pig
Method: (§1) At the end of the study, 8 animals from each treatment group were sacrificed, samples were collected, and analysed. Duodenal and ileal mucosal scrapings were collected. The duodenum and ileum were longitudinally cut to expose the mucosa, washed with a phosphate-buffered saline solution to remove mucus and digesta, then scraped gently, packed, immediately frozen in liquid nitrogen and stored at -80° C. until the analyses of gene and protein expression. Gene expression was analysed using the method reported by […] et al. [The Journal of Nutrition. 2011; 141:2139-45]. […] The RNA yield and quality were determined spectrophotometrically by measuring the absorbance at 260 and 280 nm (A260 and A280 nm, respectively) (Microvolume Mode with SmartPath® Technology, Denovix). […] The average threshold cycle (CT) was determined for each gene of interest, and the geometric average was calculated for HK by assuming that CT is the number of cycles required to reach a fixed arbitrary threshold. Delta CT was calculated, then a modification of the 2^-ΔΔCT method [Livak K J, et al., Methods 2001; 25:402-8] was used to analyse the relative expression (fold changes), which was calculated relative to the control group. […] Animals were blocked in a completely randomised design and data were analysed using GraphPad Prism® software (GraphPad Software, Inc., La Jolla, Calif., USA). […]

TRPV1 mRNA = assay: Gene expression of gut chemosensing marker TRPV1 in duodenal and ileal mucosa of weaned piglets fed thymol (real-time PCR); format: in vivo, pig; conditions: for TRPV1 mRNA level, ileum: d14, compared to the control group, P=0.0183
Method: (§2) At the end of the study, 8 animals from each treatment group were sacrificed, samples were collected, and analysed. Duodenal and ileal mucosal scrapings were collected. The duodenum and ileum were longitudinally cut to expose the mucosa, washed with a phosphate-buffered saline solution to remove mucus and digesta, then scraped gently, packed, immediately frozen in liquid nitrogen and stored at -80° C. until the analyses of gene and protein expression. Gene expression was analysed using the method reported by […] et al. [The Journal of Nutrition. 2011; 141:2139-45]. Duodenal and ileal scraping samples obtained on d14 of the study were disrupted by grinding them in liquid nitrogen with mortar and pestle, and then homogenised using a TissueLyser (Qiagen, Hilden, Germany). Total RNA was isolated using a NucleoSpin® RNA Kit (Macherey-Nagel, Duren, Germany) according to the manufacturer's instructions. Genomic DNA contamination was removed by treating the samples with the deoxyribonuclease supplied in the extraction kit ([…], RNase-free; Macherey-Nagel). The RNA yield and quality were determined spectrophotometrically by measuring the absorbance at 260 and 280 nm (A260 and A280 nm, respectively) (Microvolume Mode with SmartPath® Technology, Denovix). […] The average threshold cycle (CT) was determined for each gene of interest, and the geometric average was calculated for HK by assuming that CT is the number of cycles required to reach a fixed arbitrary threshold. Delta CT was calculated, then a modification of the 2^-ΔΔCT method [Livak K J, et al., Methods 2001; 25:402-8] was used to analyse the relative expression (fold changes), which was calculated relative to the control group. […] Animals were blocked in a completely randomised design and data were analysed using GraphPad Prism® software (GraphPad Software, Inc., La Jolla, Calif., USA). Data were analysed using one-way ANOVA followed by Tukey's post hoc test to detect differences among treatments. […]

CB2 mRNA = assay: Gene expression of cannabinoid receptor CB2 in duodenal and ileal mucosa of weaned piglets fed thymol (real-time PCR); format: in vivo, pig; conditions: d14, compared to the control group; for CB2 mRNA level, duodenum: P=0.004; for CB2 mRNA level, ileum: P=0.0162
Method: as §2, with “Denovix). One microgram of RNA was reverse transcribed using the iScript cDNA Synthesis Kit (Bio-Rad Laboratories Inc., Hercules, Calif., USA) according to the manufacturer's instructions. Real-time PCR was performed using an iCycler Thermal Cycler system and SybrGreen Supermix (Bio-Rad Laboratories Inc.). The thermocycling protocol provided for an initial denaturation step for 1 minute and 30 seconds at 95° C., followed by 40 denaturation cycles at 95° C. for 15 seconds, and 30 seconds of annealing and extension at 60° C. After amplification, a melt curve analysis was performed for all samples, with slow heating from 55° C. to 95° C. at a rate of 0.5° C./s to validate the absence of non-specific products.” for “Denovix).”

[1] = system: OR1G1 (Olfactory receptor 1G1) mRNA; assay: Gene expression of gut chemosensing marker OR1G1 in duodenal and ileal mucosa of weaned piglets fed thymol (real-time PCR); format: in vivo, pig; conditions: d14, compared to the control group
Method: as §1

[2] = piglets, 14-day experiment, up to 510 mg thymol/kg feed
Method: […] piglets (Duroc—Large White) weaned at 28 days of age and with a body weight (BW) of 7.71±1.00 kg were divided into 40 pens (4 piglets per pen, castrated males and females were placed in separate pens) and randomly assigned to one of the following experimental groups (n=32): control group fed with the basal diet (T1), a group fed with the basal diet supplemented with 25.5 mg of thymol/kg feed (T2), a group fed with the basal diet supplemented with 51 mg of thymol/kg feed (T3), a group fed with the basal diet supplemented with 153 mg of thymol/kg feed (T4) and a group fed with the basal diet supplemented with 510 mg of thymol/kg feed (T5). Thymol was provided in a form embedded (microencapsulated) in a lipid matrix (Vetagro SpA, Reggio Emilia, Italy). Concentrations of thymol were selected to meet or exceed the upper limit of inclusion in food and feed established by the European Agency for the Evaluation of Medicinal Products and for the feed. […] The health condition of the animals was monitored during the study. […] Growth parameters, such as FI, ADFI, ADG and F:G (FI—feed intake; ADFI—Average daily feed intake; ADG—Average daily gain; F:G—Feed to gain ratio), were measured in the animals housed in each pen on day 14 (d14) of the experiment.

CB1 mRNA = assay: Gene expression of cannabinoid receptor CB1 in duodenal and ileal mucosa of weaned piglets fed thymol (real-time PCR); format: in vivo, pig; conditions: d14, compared to the control group; for CB1 mRNA level, ileum: P=0.0054
Method: as §2

[3] = group T4, 153 mg of thymol/kg feed
[4] = group T5, 510 mg of thymol/kg feed

With Cc1ccc(C(C)C)c(O)c1 [thymol] the “FAAH mRNA level, ileum” value (FAAH mRNA; group T4, 153 mg of thymol/kg feed, d14, compared to the control group, P=0.0028) was “significantly increased”, the “FAAH mRNA level, duodenum” value (FAAH mRNA; thymol groups T2-T5 (25.5-510 mg/kg feed), d14) was “Differences in FAAH mRNA levels were not observed” and the “TRPV1 mRNA level, ileum” value (TRPV1 mRNA; group T4, 153 mg thymol/kg feed) was “increased”. The “TRPV1 mRNA level, ileum” value (TRPV1 mRNA; group T5, 510 mg thymol/kg feed) was “increased”, the “TRPV1 mRNA level, duodenum” value (TRPV1 mRNA; group T5, 510 mg thymol/kg of feed, d14, P=0.0382) was “increased” and the “CB2 mRNA level, duodenum” value (CB2 mRNA; [3]) was “Significantly increased”. The “CB2 mRNA level, ileum” value (CB2 mRNA; [3]) was “Significantly increased”, the “CB2 mRNA level, duodenum” value (CB2 mRNA; [4]) was “Significantly increased” and the “CB2 mRNA level, ileum” value (CB2 mRNA; [4]) was “Significantly increased”. The “OR1G1 mRNA level, ileum” value ([1]; group T4, 153 mg thymol/kg feed, P=0.0235) was “expressed at higher levels”, the “OR1G1 mRNA level, duodenum” value ([1]; group T5, 510 mg thymol/kg feed, P=0.0210) was “expressed at higher levels” and the mortality [2] was “no mortality was recorded”. The “CB1 mRNA level, ileum” value (CB1 mRNA; [3]) was “significantly increased”, the “CB1 mRNA level, ileum” value (CB1 mRNA; [4]) was “significantly increased” and the “CB1 mRNA level, duodenum” value (CB1 mRNA; group T5, 510 mg of thymol/kg feed, P=0.0209) was “significantly increased”.
